Results: ChEMBL document CHEMBL3217595, “RCAI-133, an N-methylated analogue of KRN7000, activates mouse natural killer T cells to produce Th2-biased cytokines” (2013)
Activity calls are given as the source filed them. The rule behind the calls is not given here.

Key:
[1] = system: Mus musculus; assay: Immunostimulatory activity in C57BL/6 mouse assessed as induction of IL-4 production in serum at 2 ug, iv administered through PBS solution; type: functional, organism-based
[2] = system: Mus musculus; assay: Immunostimulatory activity in C57BL/6 mouse assessed as induction of IFN-gamma production in serum at 2 ug, iv administered through PBS solution by ELISA; type: functional, organism-based
[3] = system: Mus musculus; assay: Immunostimulatory activity in C57BL/6 mouse assessed as induction of IL-4/IFN-gamma ratio in serum at 2 ug, iv administered through PBS solution; type: functional

| Compound | Activity [1] | Activity [2] | Ratio [3] |
| --- | --- | --- | --- |
| CCCCCCCCCCCCCCCCC(C)(C)C(=O)N[C@@H](CO[C@H]1O[C@H](CO)[C@H](O)[C@H](O)[C@H]1O)[C@H](O)[C@H](O)CCCCCCCCCCCCCC | Active | Active | – |
| CCCCCCCCCCCCCCCC[C@@H](C)C(=O)N(C)[C@@H](CO[C@H]1O[C@H](CO)[C@H](O)[C@H](O)[C@H]1O)[C@H](O)[C@H](O)CCCCCCCCCCCCCC | inactive | inactive | – |
| CCCCCCCCCCCCCCCCCC(=O)N[C@@H](CO[C@H]1O[C@H](CO)[C@H](O)[C@H](O)[C@H]1O)[C@H](O)[C@H](O)CCCCCCCCCCCCCC | Active | Active | – |
| CCCCCCCCCCCCCCCCCCCCCCCCCC(=O)N[C@@H](CO[C@H]1O[C@H](CO)[C@H](O)[C@H](O)[C@H]1O)[C@H](O)[C@H](O)CCCCCCCCCCCCCC [RGI-7000] | – | – | 0.0043 |
| CCCCCCCCCCCCCCCCC(C)(C)C(=O)N(C)[C@@H](CO[C@H]1O[C@H](CO)[C@H](O)[C@H](O)[C@H]1O)[C@H](O)[C@H](O)CCCCCCCCCCCCCC | inactive | inactive | – |
| CCCCCCCCCCCCCCCC[C@@H](C)C(=O)N[C@@H](CO[C@H]1O[C@H](CO)[C@H](O)[C@H](O)[C@H]1O)[C@H](O)[C@H](O)CCCCCCCCCCCCCC | Active | Active | – |
| CCCCCCCCCCCCCCCCCC(=O)N(C)[C@@H](CO[C@H]1O[C@H](CO)[C@H](O)[C@H](O)[C@H]1O)[C@H](O)[C@H](O)CCCCCCCCCCCCCC | inactive | inactive | 0.0095 |
| CCCCCCCCCCCCCCCC[C@@H](O)C(=O)N(C)[C@@H](CO[C@H]1O[C@H](CO)[C@H](O)[C@H](O)[C@H]1O)[C@H](O)[C@H](O)CCCCCCCCCCCCCC | inactive | inactive | – |
| CCCCCCCCCCCCCCCC[C@@H](O)C(=O)N[C@@H](CO[C@H]1O[C@H](CO)[C@H](O)[C@H](O)[C@H]1O)[C@H](O)[C@H](O)CCCCCCCCCCCCCC | Active | Active | – |
| CCCCCCCCCCCCCCCCCCCCCCCCCC(=O)N(C)[C@@H](CO[C@H]1O[C@H](CO)[C@H](O)[C@H](O)[C@H]1O)[C@H](O)[C@H](O)CCCCCCCCCCCCCC | – | – | 0.017 |
